Laboratory results as given in patent US12152038B2, “Vasopressin receptor antagonists and products and methods related thereto” (Neumora Therapeutics, Inc., priority 2017, dated 2024).
Read-outs that look alike come from different tables or passages of the source.

Tests used:
[1] = molecular target: T1, MDR1 (P-glycoprotein) (Homo sapiens, UniProt P08183); assay: MDR1-MDCK permeability and efflux assay (Papp, efflux ratio, effective efflux ratio); assay type: in vitro ADME; details: dog; for Papp A→B at 1 h, 10 μM: pH 7.4, read-out: Papp AB MDR1
T1 construct: host or cells: MDCK (MDR1-MDCK; wild-type MDCK as comparator)
Procedure, shortened: (§1)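 Confluent WT or MDR1-MDCK monolayers (3-day culture) dosed with 10 μM compound, 0.1% DMSO, in HBSS/25 mM HEPES pH 7.4, A>B and B>A, 1 h at 37 °C; LC-MS/MS quantitation. Papp from acceptor/donor ratio; efflux ratio = Papp B>A/A>B; EER = ER(MDR1)/ER(WT).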

[2] = molecular target: T2, human Arginine Vasopressin Receptor V2 (AVPR2) (Homo sapiens, UniProt P30518); assay: Vasopressin V2 receptor antagonist assay (TR-FRET cAMP, 1321N1 cells); assay type: cell-based
T2 construct: host or cells: 1321N1 (cAMPZen V2 assay ready frozen cells)
Protocol: The purpose of the assay was to determine the inhibitory effect of synthesized compounds on the Vasopressin receptor 2. The assay was performed in commercially available 1321N1 cells expressing the human Arginine Vasopressin Receptor V2 (AVPR2) (Perkin Elmer #ES-363-CF). Arginine Vasopressin (AVP) evokes an increase in intracellular cAMP in these cells which is measured in a TR-FRET assay using a Europium cAMP tracer and ULight labelled antibody reagents contained in a LANCE Ultra cAMP kit (Perkin Elmer #TRF0263). Increases in cAMP in the assay result in a reduction in TR-FRET as the cAMP produced by the stimulated cells competes with the Eu-cAMP tracer for binding sites on the ULight labelled antibody. Test compounds were assessed for their ability to affect the magnitude of the response to AVP, with antagonists showing a concentration-dependent decrease in the AVP-mediated reduction in TR-FRET signal.
cAMPZen V2 assay ready cells were thawed at 37° C. and resuspended directly from frozen in 9 ml growth medium consisting of DMEM supplemented with 10% v/v fetal bovine serum, 1× non-essential amino acids, and 1 mM sodium pyruvate. Cells were spun at 1000 rpm for 3 minutes and the supernatant was carefully removed and discarded. The pellet was resuspended in 5 ml stimulation buffer and the cell density determined using the Vi-Cell automated cell counter. The cell suspension was diluted to a 0.2×10^6/ml suspension ready for plating. To all wells of a white 384-well Optiplate (Perkin Elmer #6007299) 5 μL of cells in stimulation buffer were dispensed (1,000 cells per well). Stimulation buffer consisted of HBSS (+Ca/+Mg) supplemented with 5 mM HEPES, 0.1% BSA stabiliser and 0.5 mM IBMX.
At the start of each assay day the potency of AVP was assessed and an EC80 concentration determined for subsequent compound profiling. Assays were performed by first an addition of 2.5 μl of control or test compound at 4× final concentration in stimulation buffer followed by 2.5 μl of AVP at 4× final concentration in stimulation buffer. After a 1 hour reaction, detection reagents were added by first an addition of 5 μl EU-cAMP tracer, followed by 5 μl ULight-anti-cAMP both diluted as per the manufacturer's instructions. After a one hour incubation, plates were ready to be read (signals then remained stable for up to 24 hours). Changes in time resolved fluorescence were monitored with excitation via a laser (337 nm) measuring both 615 nm and 665 nm emission wavelengths. […] For compound profiling, test compounds were dispensed by the Labcyte Echo (10-point curve, 1:3 dilutions) in a target 0.1 μl volume then diluted 750-fold in stimulation buffer containing 3% DMSO prior to addition to the cells. At the end of the incubation period, 2.5 μl of AVP in stimulation buffer was added at the previously determined EC80 concentration.
In-plate controls for the assay included a Tolvaptan concentration-response curve as the reference V2 antagonist and an AVP concentration-response curve to confirm the reproducibility of the EC80 used for the compound challenge.

[3] = Wild-type MDCK permeability and efflux assay (Papp, efflux ratio); assay type: in vitro ADME; details: dog, pH 7.4, wild-type MDCK cells; for efflux ratio at 1 h, 10 μM: Papp B>A/Papp A>B, read-out: ER WT (Efflux Ratio)
Procedure, shortened: as §1

[4] = MDCK-MDR1, pH 7.4, ER(MDR1-MDCK)/ER(wild-type MDCK), read-out: EER (Effective Efflux Ratio)
[5] = MDCK-MDR1, pH 7.4, Papp B>A/Papp A>B, MDR1-MDCK cells, read-out: ER MDR1 (Efflux Ratio)

T1 sequence (P08183 whole entry): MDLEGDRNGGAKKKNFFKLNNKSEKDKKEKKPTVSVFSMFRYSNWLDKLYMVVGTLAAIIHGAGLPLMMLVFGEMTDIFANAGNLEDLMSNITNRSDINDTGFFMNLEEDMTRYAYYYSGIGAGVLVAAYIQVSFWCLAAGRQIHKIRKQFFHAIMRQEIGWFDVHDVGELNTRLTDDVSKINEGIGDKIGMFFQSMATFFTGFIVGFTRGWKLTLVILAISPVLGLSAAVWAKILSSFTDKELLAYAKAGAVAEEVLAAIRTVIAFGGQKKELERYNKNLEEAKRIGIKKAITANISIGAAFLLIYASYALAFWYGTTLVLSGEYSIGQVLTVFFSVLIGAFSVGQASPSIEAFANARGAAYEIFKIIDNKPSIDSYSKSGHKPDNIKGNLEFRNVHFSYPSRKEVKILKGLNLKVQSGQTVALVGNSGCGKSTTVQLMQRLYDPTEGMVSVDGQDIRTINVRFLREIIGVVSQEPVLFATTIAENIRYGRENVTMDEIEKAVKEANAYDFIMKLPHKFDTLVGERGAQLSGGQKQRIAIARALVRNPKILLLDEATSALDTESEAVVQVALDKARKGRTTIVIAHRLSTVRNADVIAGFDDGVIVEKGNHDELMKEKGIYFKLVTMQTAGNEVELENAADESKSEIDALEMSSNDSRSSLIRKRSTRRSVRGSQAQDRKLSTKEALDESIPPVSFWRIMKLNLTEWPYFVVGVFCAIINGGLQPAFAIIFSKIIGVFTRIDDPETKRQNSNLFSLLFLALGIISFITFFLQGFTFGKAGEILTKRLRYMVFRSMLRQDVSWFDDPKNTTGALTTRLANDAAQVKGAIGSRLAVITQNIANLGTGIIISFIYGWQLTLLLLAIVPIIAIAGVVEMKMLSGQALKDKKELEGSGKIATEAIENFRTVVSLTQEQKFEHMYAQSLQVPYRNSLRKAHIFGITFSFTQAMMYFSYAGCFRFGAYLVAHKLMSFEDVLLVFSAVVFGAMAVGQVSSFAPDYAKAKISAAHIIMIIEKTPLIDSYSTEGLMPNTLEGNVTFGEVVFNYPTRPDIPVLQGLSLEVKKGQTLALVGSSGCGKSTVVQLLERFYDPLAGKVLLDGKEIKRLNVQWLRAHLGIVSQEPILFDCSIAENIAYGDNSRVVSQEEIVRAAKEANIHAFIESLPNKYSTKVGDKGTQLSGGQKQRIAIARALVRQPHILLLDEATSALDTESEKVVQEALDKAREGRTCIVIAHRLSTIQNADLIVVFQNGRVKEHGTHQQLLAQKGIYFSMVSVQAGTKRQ
T2 sequence (P30518 whole entry): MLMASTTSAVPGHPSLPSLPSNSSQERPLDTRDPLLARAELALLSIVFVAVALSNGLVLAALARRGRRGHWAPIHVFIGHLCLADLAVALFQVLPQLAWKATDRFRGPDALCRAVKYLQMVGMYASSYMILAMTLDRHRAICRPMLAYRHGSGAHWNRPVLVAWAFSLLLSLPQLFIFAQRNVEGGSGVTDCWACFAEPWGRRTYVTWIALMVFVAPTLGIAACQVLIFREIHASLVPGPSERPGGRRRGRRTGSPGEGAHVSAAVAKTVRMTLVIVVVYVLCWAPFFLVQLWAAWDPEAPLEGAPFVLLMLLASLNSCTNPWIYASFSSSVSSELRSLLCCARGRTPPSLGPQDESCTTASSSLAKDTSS

Row | efflux ratio at 1 h, 10 μM [1, 4] | efflux ratio at 1 h, 10 μM [1, 5] | Papp A→B at 1 h, 10 μM ([1]; MDR1-MDCK cells) [×10⁻⁶ cm/s] | IC50 [2] [nM] | Papp A→B at 1 h, 10 μM [3] [×10⁻⁶ cm/s] | efflux ratio at 1 h, 10 μM [3] | SMILES
1 | < 1 | < 1 | > 20 | ≥ 1000 | > 20 | < 1 | CC1COc2cc(F)ccc2N1C(=O)N1CC2(C1)CN(c1noc3ccccc13)C2 (stereo not drawn) [4-3]
2 | 1 to 2 | < 1 | > 20 | ≥ 1000 | > 20 | < 1 | O=C(N1CC2(C1)CN(c1ccccn1)C2)N1CCOc2cc(Cl)ccc21 [8-2]
3 | 1 to 2 | 1 to 2 | > 20 | ≥ 1000 | > 20 | < 1 | O=C(N1CC2(C1)CN(c1cnccn1)C2)N1CCOc2cc(Cl)ccc21 [8-3]
4 | < 1 | < 1 | > 20 | ≥ 1000 | > 20 | < 1 | O=C(N1CC2(C1)CN(c1ccc(F)cn1)C2)N1CCc2cc(Cl)ccc21 [8-11]
5 | 2 to 3 | 2 to 3 | > 20 | ≥ 1000 | > 20 | < 1 | O=C(N1CC2(C1)CN(c1ccccn1)C2)N1CCOCc2cc(Cl)ccc21 [8-12]
6 | < 1 | 1 to 2 | > 20 | ≥ 1000 | > 20 | 1 to 2 | O=C(N1CC2(C1)CN(c1cnccn1)C2)N1CCc2cc(Cl)ccc21 [8-14]
7 | 1 to 2 | < 1 | > 20 | ≥ 1000 | > 20 | < 1 | O=C(N1CC2(C1)CN(c1ccc(F)cn1)C2)N1CCOc2cc(Cl)ccc21 [9-7]
8 | 1 to 2 | < 1 | > 20 | ≥ 1000 | > 20 | < 1 | O=C(N1CC2(C1)CN(c1ccc(F)cn1)C2)N1CCC(F)(F)c2cc(Cl)ccc21 [17-1, (6-chloro-4,4-difluoro-3,4-dihydroquinolin-1(2H)-yl)(6-(5-fluoropyridin-2-yl)-2,6-diazaspiro[3.3]heptan-2-yl)methanone]
9 | < 1 | < 1 | > 20 | 100 to 500 | > 20 | < 1 | CC1COc2cc(Cl)ccc2N1C(=O)N1CC2(C1)CN(c1noc3cccnc13)C2 (stereo not drawn) [18-3]
10 | < 1 | < 1 | > 20 | ≥ 1000 | > 20 | < 1 | CC1COc2cc(Cl)c(F)cc2N1C(=O)N1CC2(C1)CN(c1cccnn1)C2 (stereo not drawn) [19-4]
11 | 1 to 2 | 1 to 2 | > 20 | < 100 | > 20 | < 1 | CC1COc2cc(F)c(F)cc2N1C(=O)N1CC2(C1)CN(c1ccc(F)cn1)C2 (stereo not drawn) [19-5]
12 | 1 to 2 | 1 to 2 | > 20 | < 100 | > 20 | 1 to 2 | Cc1cncc(N2CC3(CN(C(=O)N4c5ccc(F)cc5OCC4C)C3)C2)n1 (stereo not drawn) [20-2]
13 | < 1 | < 1 | > 20 | 100 to 500 | > 20 | < 1 | COc1ccnc(N2CC3(CN(C(=O)N4c5ccc(Cl)cc5OCC4C)C3)C2)c1 (stereo not drawn) [20-8]
14 | < 1 | < 1 | > 20 | 100 to 500 | > 20 | < 1 | COc1ccnc(N2CC3(CN(C(=O)N4c5ccc(Cl)cc5OCC4C)C3)C2)n1 (stereo not drawn) [20-9]
